In publication PMC8876975, “EGFR and COX-2 Dual Inhibitor: The Design, Synthesis, and Biological Evaluation of Novel Chalcones” (Molecules, 2022):
Where two headings read alike, the source gives them in different places.

Columns and labels:
[1] = target: T1, human recombinant sPLA2-V (Homo sapiens, UniProt P39877); test: Secretory PLA2-V activity assay (Ellman's photometric method)
T1 sequence (P39877 21-138): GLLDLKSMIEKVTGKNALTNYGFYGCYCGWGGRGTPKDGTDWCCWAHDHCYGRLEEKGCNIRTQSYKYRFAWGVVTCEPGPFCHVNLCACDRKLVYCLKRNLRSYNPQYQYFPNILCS

[2] = system: human colon cancer (HT-29); test: MTT cytotoxicity assay, HT-29; format: cell-based; conditions: HT-29, MTT, 72 h, read-out: Antiproliferative Activity IC50 ± SEM, HT-29
human recombinant COX-2 = target: T2, human recombinant COX-2 (Homo sapiens, UniProt P35354); test: Cyclooxygenase assay (PGE2 quantification), COX-2; format: biochemical; conditions: mean ± SD; n = 3
T2 construct: purchased Cayman Chemicals
T2 sequence (P35354 18-604): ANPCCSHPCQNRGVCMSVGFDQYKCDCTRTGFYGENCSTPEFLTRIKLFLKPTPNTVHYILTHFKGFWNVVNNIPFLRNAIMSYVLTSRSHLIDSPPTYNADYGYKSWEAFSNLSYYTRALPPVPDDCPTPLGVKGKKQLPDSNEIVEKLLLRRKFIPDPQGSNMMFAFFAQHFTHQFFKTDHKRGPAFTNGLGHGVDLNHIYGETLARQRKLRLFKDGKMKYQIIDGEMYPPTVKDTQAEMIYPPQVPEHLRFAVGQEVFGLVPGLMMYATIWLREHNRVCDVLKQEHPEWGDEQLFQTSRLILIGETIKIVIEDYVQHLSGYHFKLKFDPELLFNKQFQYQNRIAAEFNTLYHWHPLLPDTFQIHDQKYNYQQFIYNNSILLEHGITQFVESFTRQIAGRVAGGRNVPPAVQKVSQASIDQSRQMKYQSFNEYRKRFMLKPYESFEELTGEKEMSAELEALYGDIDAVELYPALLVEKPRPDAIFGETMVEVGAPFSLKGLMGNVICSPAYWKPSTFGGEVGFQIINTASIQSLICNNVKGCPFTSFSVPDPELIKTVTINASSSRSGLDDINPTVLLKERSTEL

[3] = system: human malignant melanoma (A375); test: MTT cytotoxicity assay, A375; format: cell-based; conditions: read-out: Antiproliferative Activity IC50 ± SEM, A375
Sheep-derived COX-1 = target: T3, Sheep-derived COX-1 (Ovis aries, UniProt P05979); test: Cyclooxygenase assay (PGE2 quantification), COX-1
T3 sequence (P05979 25-600): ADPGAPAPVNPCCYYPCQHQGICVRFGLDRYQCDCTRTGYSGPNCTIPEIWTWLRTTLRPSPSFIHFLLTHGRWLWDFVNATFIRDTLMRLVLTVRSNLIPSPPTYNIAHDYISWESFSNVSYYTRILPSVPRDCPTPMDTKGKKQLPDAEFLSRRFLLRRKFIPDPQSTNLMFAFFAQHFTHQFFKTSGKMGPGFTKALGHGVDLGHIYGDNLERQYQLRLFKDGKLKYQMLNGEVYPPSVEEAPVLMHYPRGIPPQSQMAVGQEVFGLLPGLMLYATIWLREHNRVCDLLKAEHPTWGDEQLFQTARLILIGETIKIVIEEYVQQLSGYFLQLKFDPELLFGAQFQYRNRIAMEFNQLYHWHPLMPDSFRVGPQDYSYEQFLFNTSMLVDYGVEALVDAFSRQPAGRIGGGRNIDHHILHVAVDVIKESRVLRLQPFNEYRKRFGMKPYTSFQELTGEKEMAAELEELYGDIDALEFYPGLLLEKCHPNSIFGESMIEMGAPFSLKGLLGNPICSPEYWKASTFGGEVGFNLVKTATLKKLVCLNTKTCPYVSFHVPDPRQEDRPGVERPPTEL

IL-6 = test: ELISA, LPS-induced IL-6 release in RAW264.7 macrophages; format: cell-based, mouse; conditions: for Relative Amount of LPS (IL-6): RAW 264.7, compound 10 µM, IL-6 relative to LPS control = 100
[4] = system: pancreatic ductal cancer (Panc-1); test: MTT cytotoxicity assay, Panc-1; format: cell-based; conditions: Panc-1, MTT, 72 h, read-out: Antiproliferative Activity IC50 ± SEM, Panc-1
TNF-α = test: ELISA, LPS-induced TNF-α release in RAW264.7 macrophages; format: cell-based, mouse; conditions: for Relative Amount of LPS (TNF-α): RAW 264.7, compound 10 µM, TNF-α relative to LPS control = 100
[5] = system: pancreatic cancer (PaCa-2); test: MTT cytotoxicity assay, PaCa-2; format: cell-based; conditions: PaCa-2, MTT, 72 h; read-out: Antiproliferative Activity IC50 ± SEM, PaCa-2
EGFR = target: T4, EGFR (Homo sapiens, UniProt P00533); test: EGFR kinase inhibition assay (EGFR Kinase Assay Kit); format: biochemical; conditions: triplicates; read-out: EGFR Inhibition IC50 ± SEM
T4 construct: purchased PBS Bioscience (so in the source)

lung cancer (H-460) = test: MTT cytotoxicity assay, H-460; format: cell-based; conditions: H-460, MTT, 72 h, read-out: Antiproliferative Activity IC50 ± SEM, H-460
[6] = system: normal human fetal lung fibroblast cell line, MRC5; test: Cell viability % (MTT, normal cell line); conditions: cell line and concentration not named in Table 1; supplement names MRC5 as normal cell line
[7] = Cell viability % (MTT, normal cell line); conditions: human, MRC5 normal fetal lung fibroblast cells
[8] = system: normal human fetal lung fibroblast cell line, MRC5
[9] = read-out: sPLA2-V IC50, mean ± SD, n = 3
[10] = read-out: COX-1 IC50, mean ± SD, n = 3
[11] = RAW 264.7, compound 10 µM for 2 h, then LPS 0.5 µg/mL for 22 h
[12] = Mus musculus, RAW264.7, RAW 264.7, compound 10 µM for 2 h, then LPS 0.5 µg/mL for 22 h

| Compound | IC50 [1, 9] | IC50 [2] | IC50 (human recombinant COX-2) | IC50 ([3]; 72 h) | IC50 (Sheep-derived COX-1; [10]) | % Inhibition of IL-6 (IL-6; [11]) | Relative Amount of LPS (IL-6) (IL-6) | IC50 [4] | % Inhibition of TNF-α (TNF-α; [11]) | Relative Amount of LPS (TNF-α) (TNF-α) | IC50 [5] | IC50 (EGFR) | IC50 (lung cancer (H-460)) | other results |
| --- | --- | --- | --- | --- | --- | --- | --- | --- | --- | --- | --- | --- | --- | --- |
| CN(C)c1ccc(/C=C/C(=O)c2ccc(/N=N/c3ccc(O)c(C(=O)O)c3)cc2)cc1 [Compound C15, 5. -((E)-(4-((E)-3-(4-(Dimethylamino)phenyl)acryloyl)phenyl)diazenyl)-2-hydroxy benzoic acid] | 2010 ± 1110 nM | 1600 ± 200 nM | 950 ± 200 nM | 3400 ± 1800 nM | 1900 ± 230 nM | 78% | 22 | 1900 ± 100 nM | 81% | 19 | 2300 ± 400 nM | 2800 ± 500 nM | 1700 ± 200 nM | Cell Viability % [6]: 87.3 ± 2.1% |
| CN(C)c1ccc(/C=C/C(=O)c2cccc(/N=N/c3ccc(O)c4ccccc34)c2)cc1 [Compound C16, (E)-3-(4-(Dimethylamino)phenyl)-1-(3-((E)-(4-hydroxynaphthalen-1-yl)diazenyl)phenyl) prop-2-en-1-one] | – | – | 6890 ± 800 nM | – | – | – | 31 | – | – | 28 | 1900 ± 500 nM | 2900 ± 400 nM | – | IC50 [1]: 2510 ± 1050 nM; IC50 ([2]; Homo sapiens): 1800 ± 400 nM; IC50 ([3]; Homo sapiens, A-375, 72 h): 2800 ± 1000 nM; IC50 (Sheep-derived COX-1): 7100 ± 1290 nM; inhibition at 10 µM (IL-6; [12]): 69%; IC50 ([4]; Homo sapiens): 1800 ± 500 nM; inhibition at 10 µM (TNF-α; [12]): 72%; IC50 (lung cancer (H-460); Homo sapiens, NCI-H460): 2900 ± 1000 nM; viability at 72 h [7]: 92.5 ± 2% |
| (E)-3-(4-Fluorophenyl)-1-(4-((E)-(4-hydroxynaphthalen-1-yl)diazenyl)phenyl) prop-2-en-1-one [Compound C10] | 3140 ± 640 nM | 1100 ± 200 nM | 1880 ± 400 nM | 2600 ± 1000 nM | 7370 ± 1440 nM | 77% | 23 | 1600 ± 500 nM | 76% | 24 | 900 ± 400 nM | 1100 nM | 1200 ± 100 nM | Cell Viability % [8]: 91.2 ± 2.9% |
